Target: full-length recombinant human FYN A (Homo sapiens (Human), UniProt P06241)
Experiment: ADP-Glo Kinase Assay of FYN kinase inhibition
Assay type: biochemical
Conditions: primary screen, initial compounds
How it was run: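 ADP-Glo read-out of peptide phosphorylation after 90 min RT with 12.5 pmol ATP and 100 pg 12-mer substrate. Enzyme was N-GST full-length human FYN A from insect cells, 3 pg, pre-incubated 30 min with compound, 10 points from 10 μM top, 3-fold steps; IC50 from curve.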

full-length recombinant human FYN A, sequence (P06241 whole entry): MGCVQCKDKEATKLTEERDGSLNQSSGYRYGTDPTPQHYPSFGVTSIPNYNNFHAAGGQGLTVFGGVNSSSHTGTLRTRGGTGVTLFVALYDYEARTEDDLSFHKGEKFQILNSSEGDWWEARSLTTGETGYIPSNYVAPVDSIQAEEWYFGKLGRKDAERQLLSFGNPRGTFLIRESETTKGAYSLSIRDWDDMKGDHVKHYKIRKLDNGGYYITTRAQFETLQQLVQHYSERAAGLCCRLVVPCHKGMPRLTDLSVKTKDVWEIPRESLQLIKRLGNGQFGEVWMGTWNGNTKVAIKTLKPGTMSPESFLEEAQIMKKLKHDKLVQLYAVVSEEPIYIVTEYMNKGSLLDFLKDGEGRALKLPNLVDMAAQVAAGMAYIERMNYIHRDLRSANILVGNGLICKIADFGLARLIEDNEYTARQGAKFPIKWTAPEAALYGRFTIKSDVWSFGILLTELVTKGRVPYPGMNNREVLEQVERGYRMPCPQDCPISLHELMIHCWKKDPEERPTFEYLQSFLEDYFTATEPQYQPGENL

First: OCc1ccc(-c2cnc3ccc(-c4ccc(F)cc4)nn23)cc1 [Compound 398, [4-[6-(4-fluorophenyl)imidazo[1,2-3]pyridazin-3-yl]phenyl] methanol]
Second: CC(=O)Nc1ccc(-c2ccc3ncc(-c4ccc(CO)cc4)n3n2)cc1 [Compound 419, N-[4-[3-[4-(hydroxymethyl)phenyl]imidazo [1,2-b]pyridazin-6-yl]phenyl] acetamide]
The IC50 of the first is 7.3-fold lower: 2940 nM for the first, 21500 nM for the second.

Going from `COc1cc(-c2cnc3ccc(-c4cccc(O)c4)nn23)ccc1O` [Compound 399, 4-[6-(3-hydroxyphenyl)imidazo[1,2-b]pyridazin-3-yl]-2-methoxy-phenol] to `COc1cc(-c2cnc3ccc(-c4cccc(CO)c4)nn23)ccc1O` [Compound 420, 4-[6-[3-(hydroxymethyl)phenyl]imidazo [1,2-b]pyridazin-3-yl]-2-methoxy-phenol], the IC50 falls from 295 nM to 102 nM (2.9-fold). The second is the more potent here.

Compared with `COc1ccc(-c2ccc3ncc(-c4ccncc4)n3n2)cc1OC` [Compound 400, 6-(3,4-dimethoxy-phenyl)-3-(4-pyridyl)imidazo [1,2-b]pyridazine], `COc1ccc(-c2cnc3ccc(-c4cccnc4)nn23)cc1OC` [Compound 405, 3-(3,4-dimethoxy-phenyl)-6-(3-pyridyl)imidazo [1,2-b]pyridazine] is 1.9-fold higher in IC50: 282 nM for the first, 549 nM for the second. The first is the more potent here.

Compared with `Fc1ccc(-c2ccc3ncc(-c4cccnc4)n3n2)cc1` [Compound 401, 6-(4-fluorophenyl)-3-(3-pyridyl)imidazo [1,2-b]pyridazine], `NC(=O)c1ccc(-c2ccc3ncc(-c4cccnc4)n3n2)cc1` [Compound 426, 4-[3-(3-pyridyl)imidazo [1,2-b]pyridazin-6-yl]benzamide] is 4-fold higher in IC50: 2780 nM for the first, 11200 nM for the second. The first is the more potent here.

Compared with `OCc1cccc(-c2ccc3ncc(-c4cccc(Cl)c4)n3n2)c1` [Compound 402, [3-[3-(3-chlorophenyl)imidazo[1,2-b]pyridazin-6-yl]phenyl] methanol], `CC(=O)c1cccc(-c2cnc3ccc(-c4cccc(CO)c4)nn23)c1` [Compound 421, 1-[3-[6-[3-(hydroxymethyl)phenyl]imidazo [1,2-b]pyridazin-3-yl]phenyl] ethanone] is 55-fold lower in IC50: 9820 nM for the first, 179 nM for the second. The second is the more potent here.

Compared with `Oc1cccc(-c2cnc3ccc(-c4ccc(F)cc4)nn23)c1` [Compound 403, 3-[6-(4-fluorophenyl)imidazo[1,2-b]pyridazin-3-yl]phenol], `OCc1ccc(-c2cnc3ccc(-c4cccc(O)c4)nn23)cc1` [Compound 435, 3-[3-[4-(hydroxymethyl)phenyl]imidazo [1,2-b]pyridazin-6-yl]phenol] is 10-fold lower in IC50: 11900 nM for the first, 1140 nM for the second. The second is the more potent here.

`c1ccc(-c2cnc3ccc(-c4cccs4)nn23)cc1` [Compound 404, 3-phenyl-6-(2-thienyl)imidazo [1,2-b]pyridazine] and `OCc1ccc(-c2cnc3ccc(-c4ccccc4)nn23)cc1` [Compound 418, [4-(6-phenylimidazo [1,2-b]pyridazin-3-yl)phenyl] methanol] are within 1.5-fold of each other in IC50: 1970 nM for the first, 1460 nM for the second.

Going from `CC(=O)Nc1cccc(-c2ccc3ncc(-c4cccc(O)c4)n3n2)c1` [Compound 406, N-[3-[3-(3-hydroxyphenyl)imidazo[1,2-b]pyridazin-6-yl]phenyl] acetamide] to `CC(=O)Nc1cccc(-c2cnc3ccc(-c4ccc(F)c(Cl)c4)nn23)c1` [Compound 434, N-[3-[6-(3-chloro-4-fluoro-phenyl)imidazo [1,2-b]pyridazin-3-yl]phenyl] acetamide], the IC50 falls from 1650 nM to 525 nM (3.1-fold).

Compared with `COc1cc(-c2cnc3ccc(-c4ccc(CO)cc4)nn23)ccc1O` [Compound 407, 4-[6-[4-(hydroxymethyl)phenyl]imidazo [1,2-b]pyridazin-3-yl]-2-methoxy-phenol], `COc1ccc(-c2ccc3ncc(-c4ccc(CO)cc4)n3n2)cc1OC` [Compound 432, [4-[6-(3,4-dimethoxyphenyl)imidazo[1,2-b]pyridazin-3-yl]phenyl] methanol] is 32-fold higher in IC50: 125 nM for the first, 3940 nM for the second. The first is the more potent here.

Compared with `CNC(=O)c1cccc(-c2ccc3ncc(-c4ccc(OC)c(OC)c4)n3n2)c1` [Compound 408, 3-[3-(3,4-dimethoxyphenyl)imidazo[1,2-b]pyridazin-6-yl]-N-methyl-benzamide], `COc1ccc(-c2ccc3ncc(-c4cccc(NC(C)=O)c4)n3n2)cc1OC` [Compound 411, N-[3-[6-(3,4-dimethoxyphenyl)imidazo[1,2-p]pyridazin-3-yl]phenyl] acetamide] is 13-fold lower in IC50: 3490 nM for the first, 259 nM for the second. The second is the more potent here.

First: CC(=O)Nc1cccc(-c2ccc3ncc(-c4ccncc4)n3n2)c1 [Compound 409, N-[3-[3-(4-pyridyl)imidazo [1,2-b]pyridazin-6-yl]phenyl] acetamide]
Second: CC(=O)c1cccc(-c2cnc3ccc(-c4ccncc4)nn23)c1 [Compound 413, 1-[3-[6-(4-pyridyl)imidazo [1,2-b]pyridazin-3-yl]phenyl] ethanone]
The IC50 of the first is 1.6-fold higher: 598 nM for the first, 371 nM for the second. The second is the more potent here.

Going from `c1cncc(-c2cnc3ccc(-c4ccoc4)nn23)c1` [Compound 410, 6-(3-furyl)-3-(3-pyridyl)imidazo [1,2-b]pyridazine] to `Oc1cccc(-c2cnc3ccc(-c4ccoc4)nn23)c1` [Compound 412, 3-[6-(3-furyl)imidazo[1,2-b]pyridazin-3-yl]phenol], the IC50 falls from 2350 nM to 1060 nM (2.2-fold).

First: Cc1cccc(Cc2ccc3ncc(-c4ccncc4)n3n2)c1 [Compound 414, 6-(m-tolylmethyl)-3-(4-pyridyl)imidazo [1,2-b]pyridazine]
Second: c1ccc(Cc2ccc3ncc(-c4ccncc4)n3n2)cc1 [Compound 425, 6-benzyl-3-(4-pyridyl)imidazo [1,2-b]pyridazine]
The IC50 of the first is 1.6-fold higher: 977 nM for the first, 624 nM for the second. The second is the more potent here.

Going from `Fc1ccc(-c2ccc3ncc(-c4ccc5c(c4)OCO5)n3n2)cc1` [Compound 415, 3-(1,3-benzodioxol-5-yl)-6-(4-fluorophenyl) imidazo[1,2-b]pyridazine] to `Nc1cccc(-c2ccc3ncc(-c4ccc5c(c4)OCO5)n3n2)c1` [Compound 430, 3-[3-(1,3-benzodioxol-5-yl)imidazo[1,2-b]pyridazin-6-yl]aniline], the IC50 falls from 7600 nM to 843 nM (9-fold).

`COc1ccc(-c2ccc3ncc(-c4ccc(OC)c(OC)c4)n3n2)cc1OC` [Compound 416, 3,6-bis(3,4-dimethoxyphenyl) imidazo[1,2-b]pyridazine] and `COc1ccc(-c2ccc3ncc(-c4cccc(CO)c4)n3n2)cc1OC` [Compound 436, [3-[6-(3,4-dimethoxyphenyl)imidazo[1,2-b]pyridazin-3-yl]phenyl] methanol] are within 1.5-fold of each other in IC50: 538 nM for the first, 749 nM for the second.

Compared with `COc1ccccc1-c1ccc2ncc(-c3cccc(O)c3)n2n1` [Compound 417, 3-[6-(2-methoxyphenyl)imidazo[1,2-b]pyridazin-3-yl]phenol], `COc1cccc(-c2ccc3ncc(-c4cccc(C(C)=O)c4)n3n2)c1` [Compound 428, 1-[3-[6-(3-methoxyphenyl)imidazo[1,2-b]pyridazin-3-yl]phenyl] ethanone] is 1.5-fold lower in IC50: 2740 nM for the first, 1780 nM for the second.

Compared with `COc1cc(-c2ccc3ncc(-c4cccs4)n3n2)ccc1O` [Compound 423, 2-methoxy-4-[3-(2-thienyl)imidazo[1,2-b]pyridazin-6-yl]phenol], `CC(=O)c1cccc(-c2cnc3ccc(-c4cccnc4)nn23)c1` [Compound 427, 1-[3-[6-(3-pyridyl)imidazo [1,2-b]pyridazin-3-yl]phenyl] ethanone] is 1.8-fold higher in IC50: 694 nM for the first, 1230 nM for the second. The first is the more potent here.

First: O=C(NCCO)c1cccc(-c2ccc3ncc(-c4ccccc4)n3n2)c1 [Compound 424, N-(2-hydroxyethyl)-3-(3-phenyl-imidazo[1,2-b]pyridazin-6-yl)benzamide]
Second: CC(=O)c1cccc(-c2ccc3ncc(-c4cccc(C(C)=O)c4)n3n2)c1 [Compound 437, 1-[3-[3-(3-acetylphenyl)imidazo[1,2-b]pyridazin-6-yl]phenyl] ethanone]
The IC50 of the first is 24-fold higher: 13900 nM for the first, 582 nM for the second. The second is the more potent here.

First: Fc1ccc(Cc2ccc3ncc(-c4ccncc4)n3n2)cc1 [Compound 429, 6-[(4-fluorophenyl)methyl]-3-(4-pyridyl)imidazo [1,2-b]pyridazine]
Second: CNc1ccc2ncc(-c3ccc(F)cc3)n2n1 [Compound 437_0339, 3-(4-fluoro-phenyl)-N-methyl-imidazo[1,2-b]pyridazin-6-amine]
The IC50 of the first is 2.2-fold lower: 1450 nM for the first, 3260 nM for the second.

Compared with `c1cc(-c2ccc3ncc(-c4ccc5c(c4)OCO5)n3n2)co1` [Compound 431, 3-(1,3-benzodioxol-5-yl)-6-(3-furyl) imidazo[1,2-b]pyridazine], `CN(C)CCNC(=O)c1cccc(-c2ccc3ncc(-c4ccc5c(c4)OCO5)n3n2)c1` [Compound 433, 3-[3-(1,3-benzodioxol-5-yl)imidazo[1,2-b]pyridazin-6-yl]-N-(2-dimethylamino-ethyl)benzamide] is 4.1-fold lower in IC50: 1600 nM for the first, 393 nM for the second.

First: CNc1ccc2ncc(-c3ccsc3)n2n1 [Compound 437_0074, N-methyl-3-(3-thienyl)imidazo [1,2-b]pyridazin-6-amine]
Second: CNc1ccc2ncc(-c3cccc(O)c3)n2n1 [Compound 437_0284, 3-[6-(methyl-amino)imidazo[1,2-b]pyridazin-3-yl]phenol]
The IC50 of the first is 1.9-fold higher: 4230 nM for the first, 2180 nM for the second.

Going from `CNc1ccc2ncc(-c3ccc(OC)c(OC)c3)n2n1` [Compound 437_0079, 3-(3,4-dimethoxyphenyl)-N-methyl-imidazo[1,2-b]pyridazin-6-amine] to `CNc1ccc2ncc(-c3ccc(OC)cc3)n2n1` [Compound 437_0280, 3-(4-methoxyphenyl)-N-methyl-imidazo[1,2-b]pyridazin-6-amine], the IC50 rises from 1240 nM to 4160 nM (3.4-fold). The first is the more potent here.

Going from `CNc1ccc2ncc(-c3cccc(NC(C)=O)c3)n2n1` [Compound 437_0081, N-[3-[6-(methylamino)imidazo[1,2-b]pyridazin-3-yl]phenyl] acetamide] to `CNc1ccc2ncc(-c3cccc(C(=O)N(C)C)c3)n2n1` [Compound 437_0349, N,N-dimethyl-3-[6-(methylamino)imidazo[1,2-b]pyridazin-3-yl]benzamide], the IC50 rises from 1750 nM to 2940 nM (1.7-fold).

First: CNc1ccc2ncc(-c3ccc(OC)nc3)n2n1 [Compound 437_0311, 3-(6-methoxy-3-pyridyl)-N-methyl-imidazo[1,2-b]pyridazin-6-amine]
Second: CNc1ccc2ncc(-c3ccccc3O)n2n1 [Compound 437_0340, 2-[6-(methylamino)imidazo[1,2-b]pyridazin-3-yl]phenol]
The IC50 of the first is 3.9-fold higher: 4460 nM for the first, 1130 nM for the second. The second is the more potent here.

— patent publication US10688093B2, “Methods, compositions, and uses of novel Fyn kinase inhibitors” (priority 2015, dated 2020)
